This is an account of results in ChEMBL document CHEMBL4052825, “Identification of Novel Coumestan Derivatives as Polyketide Synthase 13 Inhibitors against Mycobacterium tuberculosis” (J Med Chem, 2018).

In assay [1] the test system is Mycobacterium tuberculosis. Kind of assay: Antitubercular activity against isoniazid/rifampicin/fluoroquinolone-resistant Mycobacterium tuberculosis. It counts as functional.
The subject of assay [2] is Mycobacterium tuberculosis. Description: Antitubercular activity against resistant Mycobacterium tuberculosis harboring PKS13 mutant after 12 to 24 hrs by MABA. The assay is classed as functional.
A short description of assay [3]: Selectivity ratio of MIC=<90 for resistant Mycobacterium tuberculosis harboring PKS13 mutant to MIC=<90 for Mycobacterium tuberculosis H37Rv.

≈ marks a conversion by molar mass, not a printed value.

Take `CCOC(=O)c1c(NC(=O)c2c(F)c(F)c(F)c(F)c2F)sc2c1CCN(CC)C2`: in assay [1], the minimum inhibitory concentration (MIC) – broadly, the lowest concentration found to suppress growth – was 0.2 to 0.4 µM (≈ 0.0897 to 0.179 µg/mL).

For `CCOC(=O)c1c(-c2ccc(F)cc2)oc2ccc(O)c(CN3CCCCC3)c12`, the “MIC=<90” value in assay [2] is 4 µg/mL (≈ 10.1 µM). Besides, the Selectivity ratio in assay [3] was determined as 8.

`O=c1oc2ccccc2c2oc3ccc(O)c(CN4CCCCC4)c3c12`: the “MIC=<90” value in assay [2] came to 16 µg/mL (≈ 45.8 µM). In addition, the Selectivity ratio in assay [3] was 64 to 128.

For `COc1ccc2c(c1)oc(=O)c1c2oc2ccc(O)c(CN3CCCCC3)c21`, the “MIC=<90” value in assay [2] was 16 µg/mL (≈ 42.2 µM). Besides, the Selectivity ratio in assay [3] came to 64.
